From patent US11447525B2 (NIIGATA UNIVERSITY, priority 2018, dated 2022)
Non-standard residues stand in square brackets, D forms with d. Residues, ends and D or L forms follow the SMILES beside them. No end group written: not given here. *: point of attachment. 5FAM = O=C1OC2(c3ccc(O)cc3Oc3cc(O)ccc32)c2ccc(C(=O)*)cc21; NMeR = CN[C@@H](CCCNC(=N)N)C(=O)O

Assay: Degradation test by human blood plasma, MALDI-TOFMS analysis
Format: in vitro ADME
Details: for remaining at 5 min / remaining at 10 min / remaining at 20 min / remaining at 0.5 h / remaining at 1 h / remaining at 2 h: read-out: degradation resistance (proportion of the peptide retained without degradation)
Procedure: Specifically, a peptide composed of the amino acid sequence represented by SEQ ID NO: 1 (hereafter sometimes referred to as “PCPP11”) was added to human blood plasma having a concentration of 50% by mass, the mixture was sampled immediately after starting the degradation test (after 0 minutes), and then after 5 minutes, after 10 minutes, after 20 minutes, after 30 minutes, after 60 minutes and after 120 minutes, and the samples were analyzed by MALDI-TOFMS (Matrix Assisted Laser Desorption/Ionization-Time Of Flight Mass Spectrometry). In Table 2, “UK” is an abbreviation for “unknown”. Further, the No. shown for each peptide in Table 2 corresponds with the numerical value recorded on the peaks of the graphs shown in FIG. 1.
Each of the peptides described above was added to human blood plasma having a concentration of 50% by mass, the resulting mixture was sampled immediately after starting the degradation test (after 0 minutes), and then after 5 minutes, after 10 minutes, after 20 minutes, after 30 minutes, after 60 minutes and after 120 minutes, and the samples were analyzed by MALDI-TOFMS. The results are shown in FIGS. 2 to 6 and Tables 4 to 6 shown below. Furthermore, the data for the degradation test by human blood plasma using PCPP11 from Reference Example 1 and the degradation tests by human blood plasma using each of the above peptides are collated in FIG. 7 and Table 7. The SEQ ID NO listed for the FAM-labeled peptide represents the SEQ ID NO of the peptide portion. Further, the No. shown for each peptide in Tables 4 to 6 corresponds with the numerical value recorded on the peaks of the graphs shown in FIGS. 2 to 6. In each table, in those cases where the numerical values are shown separated into an upper row and a lower row, the upper row value indicates the proportion (%) of peak area for two or more peptides relative to the total peak area in the MALDI-TOFMS analysis. On the other hand, the lower row value indicates the proportion (%) of each peptide when the peak area for the two or more peptides is deemed to be 100%. Moreover, for example, for the peptide No. 9 shown in Table 4, the left-side “70.0%” indicates the proportion (%) of the peptide No. 9 when the total peak area for the peptides No. 9 to 11 is deemed to be 100%, whereas the right-side “65%” indicates the proportion (%) of the peptide No. 9 relative to the total peak area in the MALDI-TOFMS analysis. This system is also used in the following tables.

[1] = 50% by mass human blood plasma, 5 min
[2] = 50% by mass human blood plasma, Start
[3] = 50% by mass human blood plasma, 10 min
[4] = 50% by mass human blood plasma, 20 min
[5] = 50% by mass human blood plasma, 30 min
[6] = 50% by mass human blood plasma, 60 min
[7] = 50% by mass human blood plasma, 120 min
[8] = LL peptide added to 50% by mass human blood plasma, 20 min
[9] = LL peptide added to 50% by mass human blood plasma, 60 min
[10] = LL peptide added to 50% by mass human blood plasma, 120 min

remaining at 5 min [1]	degradation resistance (proportion of the peptide retained without degradation) [2]	remaining at 10 min [3]	remaining at 20 min [4]	remaining at 0.5 h [5]	remaining at 1 h [6]	remaining at 2 h [7]	further results	Molecule
							persistence time (the time of stable existence) (50% by mass human blood plasma): less than 20 minutes	RRPTTWHKP [No. 1, reference compound]
93%	100%							RRPTTWHKP [compound 1]
100%	100%	100%	94%	84%	58%	32%	proportion of each peptide when the peak area for the two or more peptides is deemed to be 100% (Ld peptide added to 50% by mass human blood plasma, 5 min): (89.0%); proportion of each peptide when the peak area for the two or more peptides is deemed to be 100% (Ld peptide added to 50% by mass human blood plasma, 10 min): (82.2%); proportion of each peptide when the peak area for the two or more peptides is deemed to be 100% (Ld peptide added to 50% by mass human blood plasma, 20 min): (71.9%); proportion of each peptide when the peak area for the two or more peptides is deemed to be 100% (Ld peptide added to 50% by mass human blood plasma, 30 min): (62.3%); proportion of each peptide when the peak area for the two or more peptides is deemed to be 100% (Ld peptide added to 50% by mass human blood plasma, 60 min): (43.0%); proportion of each peptide when the peak area for the two or more peptides is deemed to be 100% (Ld peptide added to 50% by mass human blood plasma, 120 min): (24.6%); proportion of each peptide when the peak area for the two or more peptides is deemed to be 100% (Ld peptide added to 50% by mass human blood plasma, Start): (96.9%)	C[C@H](O)[C@@H](NC(=O)[C@@H](Cc1c[nH]c2ccccc12)NC(=O)[C@@H](Cc1c[nH]cn1)NC(=O)[C@@H](CCCCN)NC(=O)[C@H]1CCCN1C(=O)CNC(=O)[C@@H]1CCCN1C(=O)[C@H](CCCCN)NC(=O)[C@H](Cc1c[nH]cn1)NC(=O)[C@H](Cc1c[nH]c2ccccc12)NC(=O)[C@@H](NC(=O)[C@@H](NC(=O)[C@@H]1CCCN1C(=O)[C@H](CCCNC(=N)N)NC(=O)[C@@H](N)CCCNC(=N)N)[C@@H](C)O)[C@@H](C)O)C(=O)N[C@@H](C(=O)N1CCC[C@@H]1C(=O)N[C@H](CCCNC(=N)N)C(=O)N[C@H](CCCNC(=N)N)C(=O)O)[C@H](C)O [compound 15] (H-RRPTTWHKPG[dP][dK][dH][dW][dT][dT][dP][dR][dR]-OH; N-terminus and C-terminus assumed)
							degradation resistance compared with the stand-alone PCPP11 and the FAM-PCPP11 (50% by mass human blood plasma): superior degradation resistance	C[C@@H](O)[C@H](NC(=O)[C@@H](NC(=O)[C@@H]1CCCN1C(=O)[C@H](CCCNC(=N)N)NC(=O)[C@H](CCCNC(=N)N)NC(=O)CNC(=O)[C@@H]1CCCN1C(=O)[C@H](CCCCN)NC(=O)[C@H](Cc1c[nH]cn1)NC(=O)[C@H](Cc1c[nH]c2ccccc12)NC(=O)[C@@H](NC(=O)[C@@H](NC(=O)[C@@H]1CCCN1C(=O)[C@H](CCCNC(=N)N)N(C)C(=O)[C@@H](N)CCCNC(=N)N)[C@@H](C)O)[C@@H](C)O)[C@@H](C)O)C(=O)N[C@@H](Cc1c[nH]c2ccccc12)C(=O)N[C@@H](Cc1c[nH]cn1)C(=O)N[C@@H](CCCCN)C(=O)N1CCC[C@H]1C(=O)O [No. 18] (H-R[NMeR]PTTWHKPGRRPTTWHKP-OH; N-terminus and C-terminus assumed)
100%	100%	100%	100%	100%	100%	100%		C[C@@H](O)[C@H](NC(=O)[C@@H](NC(=O)[C@@H]1CCCN1C(=O)[C@H](CCCNC(=N)N)NC(=O)[C@H](CCCNC(=N)N)NC(=O)CNC(=O)[C@@H]1CCCN1C(=O)[C@H](CCCCN)NC(=O)[C@H](Cc1c[nH]cn1)NC(=O)[C@H](Cc1c[nH]c2ccccc12)NC(=O)[C@@H](NC(=O)[C@@H](NC(=O)[C@@H]1CCCN1C(=O)[C@H](CCCNC(=N)N)N(C)C(=O)[C@@H](N)CCCNC(=N)N)[C@@H](C)O)[C@@H](C)O)[C@@H](C)O)C(=O)N[C@@H](Cc1c[nH]c2ccccc12)C(=O)N[C@@H](Cc1c[nH]cn1)C(=O)N[C@@H](CCCCN)C(=O)N1CCC[C@H]1C(=O)O [compound 18] (H-R[NMeR]PTTWHKPGRRPTTWHKP-OH; N-terminus and C-terminus assumed)
100%	100%	90%	92%	87%	73%		proportion of peak area relative to the total peak area in the MALDI-TOFMS analysis (FAM-L peptide added to 50% by mass human blood plasma, 5 min): 47.2%; proportion of peak area relative to the total peak area in the MALDI-TOFMS analysis (FAM-L peptide added to 50% by mass human blood plasma, 10 min): 43.2%; proportion of peak area relative to the total peak area in the MALDI-TOFMS analysis (FAM-L peptide added to 50% by mass human blood plasma, 20 min): 45.6%; proportion of peak area relative to the total peak area in the MALDI-TOFMS analysis (FAM-L peptide added to 50% by mass human blood plasma, 30 min): 43.6%; proportion of peak area relative to the total peak area in the MALDI-TOFMS analysis (FAM-L peptide added to 50% by mass human blood plasma, 60 min): 37.4%; proportion of peak area relative to the total peak area in the MALDI-TOFMS analysis (FAM-L peptide added to 50% by mass human blood plasma, 120 min): 13.5%; proportion of peak area relative to the total peak area in the MALDI-TOFMS analysis (FAM-L peptide added to 50% by mass human blood plasma, Start): 47.6%	C[C@@H](O)[C@H](NC(=O)[C@@H](NC(=O)[C@@H]1CCCN1C(=O)[C@H](CCCNC(=N)N)NC(=O)[C@H](CCCNC(=N)N)NC(=O)c1ccc2c(c1)C(=O)OC21c2ccc(O)cc2Oc2cc(O)ccc21)[C@@H](C)O)C(=O)N[C@@H](Cc1c[nH]c2ccccc12)C(=O)N[C@@H](Cc1c[nH]cn1)C(=O)N[C@@H](CCCCN)C(=O)N1CCC[C@H]1C(=O)O [compound 13] (5FAM-RRPTTWHKP-OH; C-terminus assumed)
	100%	84%	89%	91%	79%	65%	degradation resistance (proportion of the peptide retained without degradation) [1]: 100%; proportion of peak area relative to the total peak area in the MALDI-TOFMS analysis (LL peptide added to 50% by mass human blood plasma, 5 min): 100%; proportion of each peptide when the peak area for the two or more peptides is deemed to be 100% [8]: 92.1%; proportion of peak area relative to the total peak area in the MALDI-TOFMS analysis [8]: 89%; proportion of each peptide when the peak area for the two or more peptides is deemed to be 100% (LL peptide added to 50% by mass human blood plasma, 30 min): (92.1%); proportion of each peptide when the peak area for the two or more peptides is deemed to be 100% [9]: 82.1%; proportion of peak area relative to the total peak area in the MALDI-TOFMS analysis [9]: 79%; proportion of each peptide when the peak area for the two or more peptides is deemed to be 100% [10]: 70.0%; proportion of peak area relative to the total peak area in the MALDI-TOFMS analysis [10]: 65%; proportion of peak area relative to the total peak area in the MALDI-TOFMS analysis (LL peptide added to 50% by mass human blood plasma, Start): 100%	RRPTTWHKPGRRPTTWHKP [compound 9]
100%	100%	100%	100%	100%	100%			RRPTTWHKPGRRPTTWHKPGRRPTTWHKP [compound 12]
						100%		RRPTTWHKPGRRPTTWHKPGRRPTTWHKP [Peptide 12]
							degradation resistance compared with the stand-alone PCPP11 and the FAM-PCPP11 (50% by mass human blood plasma): superior degradation resistance	C[C@H](O)[C@@H](NC(=O)[C@@H](Cc1c[nH]c2ccccc12)NC(=O)[C@@H](Cc1c[nH]cn1)NC(=O)[C@@H](CCCCN)NC(=O)[C@H]1CCCN1C(=O)CNC(=O)[C@@H]1CCCN1C(=O)[C@H](CCCCN)NC(=O)[C@H](Cc1c[nH]cn1)NC(=O)[C@H](Cc1c[nH]c2ccccc12)NC(=O)[C@@H](NC(=O)[C@@H](NC(=O)[C@@H]1CCCN1C(=O)[C@H](CCCNC(=N)N)NC(=O)[C@@H](N)CCCNC(=N)N)[C@@H](C)O)[C@@H](C)O)C(=O)N[C@@H](C(=O)N1CCC[C@@H]1C(=O)N[C@H](CCCNC(=N)N)C(=O)N[C@H](CCCNC(=N)N)C(=O)O)[C@H](C)O [No. 15] (H-RRPTTWHKPG[dP][dK][dH][dW][dT][dT][dP][dR][dR]-OH; N-terminus and C-terminus assumed)
		67%						RRPTTWHKP [Peptide 1]
